Source: PubChem BioAssay (NCI)
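In this assay, cells in 96-well plates receive the compound at five concentrations for 48 hours. Endpoints are linearly interpolated between the surrounding concentrations. Abbreviation: GI50, concentration required for 50% inhibition of growth. TGI denotes the concentration required for complete inhibition of growth.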

Tests used:
Assay in all cases: NCI-60 cell line screen, 48 h
[1] = test system: NCI-H23 lung
[2] = test system: 786-0 renal
[3] = test system: EKVX NSCLC
[4] = test system: SF-295 CNS
[5] = test system: M14 melanoma
[6] = test system: NCI-H460 lung
[7] = test system: SK-MEL-2 melanoma
[8] = test system: HT29 colon
[9] = test system: A498 renal
[10] = test system: IGROV1 ovarian

SMILES	GI50 [1]	TGI [1]	GI50 [2]	TGI [2]	GI50 [3]	TGI [3]	GI50 [4]	TGI [4]	GI50 [5]	TGI [5]	GI50 [6]	TGI [6]	GI50 [7]	TGI [7]	GI50 [8]	TGI [8]	GI50 [9]	TGI [9]	GI50 [10]	TGI [10]
C[C@@H]1CN(Cc2ccc(F)cc2)[C@@H](C)CN1C(=O)c1cc2c(C(=O)C(=O)N(C)C)cn(C)c2cc1Cl	19.6 µM	57.2 µM	21.2 µM	67.1 µM	20.7 µM	89.8 µM	14.9 µM	36.7 µM	13.4 µM	36.6 µM	16.8 µM	37.4 µM	17 µM	36.3 µM	14 µM	36.3 µM	9.9 µM	43.8 µM	19.5 µM	49.7 µM
CC/C=C\C/C=C\C/C=C\CCCCCCCC(=O)OCC(O)CO (stereo not given)		> 100 µM		> 100 µM		> 100 µM		> 100 µM		> 81.9 µM		> 100 µM		> 100 µM		> 100 µM		> 100 µM		> 100 µM
O=C(/C=C/c1ccccc1)CCN1CCOCC1		31.8 µM		18.8 µM		30.6 µM		38.8 µM		29 µM		35.8 µM		44.5 µM		32.8 µM		44 µM		27.1 µM
O=C1CC(c2c[nH]c3ccccc23)C(=O)N1 (stereo not given)		> 100 µM		> 100 µM		> 100 µM		> 100 µM		> 100 µM		> 100 µM		> 100 µM		> 100 µM		> 100 µM		> 100 µM
NC(CSC1c2ccccc2-c2ccccc21)C(=O)O (stereo not given)		> 100 µM		> 100 µM		> 100 µM		> 100 µM		> 100 µM		> 100 µM		> 100 µM		> 100 µM		> 100 µM		> 100 µM
O=C1CCC(N2Cc3cc(CNC(=O)C(F)(F)c4ccc(Cl)cc4)ccc3C2=O)C(=O)N1 (stereo not given)	> 100 µM	> 100 µM	> 100 µM	> 100 µM	> 100 µM	> 100 µM	> 100 µM	> 100 µM	38.4 µM	> 100 µM	> 100 µM	> 100 µM	> 100 µM	> 100 µM	> 100 µM	> 100 µM	8.17 µM	> 100 µM	1.78 µM	> 100 µM
